Calls of active or inactive are those of the source. Rule as the data show it, for most assays here: actives have a measured EC50 and inactives only a lower limit.

These results are taken from ChEMBL document CHEMBL1201862, “PubChem BioAssay data set” (2004).

The target in test [1] is T1, RNA-binding protein pos-1 (Caenorhabditis elegans, UniProt G5EF15).
T1 sequence (G5EF15 whole entry): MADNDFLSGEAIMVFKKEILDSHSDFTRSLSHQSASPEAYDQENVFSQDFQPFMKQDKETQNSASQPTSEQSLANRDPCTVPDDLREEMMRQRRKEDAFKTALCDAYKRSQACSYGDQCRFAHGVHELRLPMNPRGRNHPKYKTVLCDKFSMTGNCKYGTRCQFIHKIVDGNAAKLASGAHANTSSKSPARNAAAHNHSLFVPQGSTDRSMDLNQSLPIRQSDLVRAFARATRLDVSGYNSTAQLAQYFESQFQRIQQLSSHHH
The experiment in a line: disruptors of C. elegans POS-1 RNA interaction – biochemical, fluorescence polarization, dose response (AID 1964).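 Also: purified POS-1 fused to maltose binding protein made in E. coli; potency of compounds blocking POS-1 binding to fluorescent RNA.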

The target in test [2] is T2, Zinc finger protein mex-5 (Caenorhabditis elegans, UniProt Q9XUB2).
T2 sequence (Q9XUB2 whole entry): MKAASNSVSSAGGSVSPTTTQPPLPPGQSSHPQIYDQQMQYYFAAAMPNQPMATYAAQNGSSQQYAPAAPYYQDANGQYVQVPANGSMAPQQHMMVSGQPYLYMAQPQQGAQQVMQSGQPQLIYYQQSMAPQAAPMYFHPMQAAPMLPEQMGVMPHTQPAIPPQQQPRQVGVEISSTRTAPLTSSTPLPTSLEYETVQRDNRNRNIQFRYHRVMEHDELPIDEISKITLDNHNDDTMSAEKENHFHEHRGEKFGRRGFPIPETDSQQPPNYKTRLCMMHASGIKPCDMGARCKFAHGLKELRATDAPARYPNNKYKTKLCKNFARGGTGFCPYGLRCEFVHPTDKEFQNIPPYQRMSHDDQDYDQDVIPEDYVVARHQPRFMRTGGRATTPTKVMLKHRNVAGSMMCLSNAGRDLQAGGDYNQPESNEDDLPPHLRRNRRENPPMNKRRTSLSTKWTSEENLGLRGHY
As to the kind of experiment: potency of MEX-5 RNA-binding blockers – biochemical, C. elegans, fluorescence polarization, dose response (AID 1960). (Polarisation of emitted light reports the rotation of a fluorescent probe.)

Test [3] in a line: viability of uninfected HEp-2 cells – cell-based, HTS, cytotoxicity control for RSV inhibitor project, dose response (AID 2410). Type of test: functional. Particulars: human respiratory syncytial virus.
A short description of the next test: cells. Type of test: functional.
In test [4] the target is FAD-linked sulfhydryl oxidase ALR (Homo sapiens, UniProt P55789). As to the kind of experiment: ALR-catalysed DTT oxidation blockers – biochemical, H2O2 detection, luminescence, cherry-pick, dose response (AID 493248).
Sequence of FAD-linked sulfhydryl oxidase ALR (P55789 whole entry): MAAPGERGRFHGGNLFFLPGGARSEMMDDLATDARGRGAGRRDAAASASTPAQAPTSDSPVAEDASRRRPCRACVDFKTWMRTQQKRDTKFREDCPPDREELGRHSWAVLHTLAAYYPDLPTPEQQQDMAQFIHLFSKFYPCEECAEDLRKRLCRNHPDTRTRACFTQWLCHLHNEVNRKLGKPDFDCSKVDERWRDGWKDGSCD
Test [5] can be described thus: microbe, parasite or virus in culture. The conditions noted are these: Mycobacterium tuberculosis. Type of test: functional.
The subject of the next test is H4. The experiment in a line: Luminescence Cell-Based Dose Response HTS to Identify Activators of 5'UTR Stem-Loop Driven Prion Protein mRNA Translation in H4 Neuroglioblastoma Cells. [Related pubchem assays: 1829 (Project Summary), 1814 (Primary HTS)]. Type of test: functional. The conditions noted are these: Homo sapiens.
Test [6] can be described thus: Luminescence Cell-Based Dose Response HTS to Identify Activators of Luciferase Translation or Activity in H4 […] Cells. [Related pubchem assays: 1829 (Project Summary), 1814 (Primary HTS)]. Type of test: functional.
The nature of test [7]: Luminescence Cell-Based Dose Confirmation HTS to Identify Activators of 5'UTR Stem-Loop Driven Alpha-Synuclein mRNA Translation in H4 Neuroglioblastoma Cells. [Related pubchem assays: 1829 (Project Summary), 1814 (Primary HTS)]. Type of test: functional.
Test [8] in a line: NIH3T3 cell viability loss – ATP luminescence, mouse fibroblasts, counter-screen, dose response (AID 2010).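 Also: cells exposed to compound for about 90 hours before reading.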 Type of test: functional, cell-based. (The purpose of a counterscreen is to sort out artefacts and off-target activity.)
A short description of test [9]: Trypanosoma cruzi growth suppression in host cells – NIH3T3 host cells, beta-gal luminescence, confirmation (AID 2044).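 Also: intracellular parasites grown in NIH/3T3 mouse fibroblasts as host cells; luminescent beta-galactosidase reporter signal from transgenic T. cruzi replicating inside host cells; inhibitors lower the luminescence signal.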 Type of test: functional, cell-based.
In test [10] the target is T3, Polyadenylate-binding protein 1 (Homo sapiens, UniProt P11940). As to the kind of experiment: MLLE domain peptide-binding blockers, IC50 – biochemical, fluorescence polarization, FITC-PAM2 peptide, dose response (AID 602259). Type of test: functional. The conditions noted are these: read-out: IC50_Mean.
T3 sequence (P11940 whole entry, the tested form may be a part): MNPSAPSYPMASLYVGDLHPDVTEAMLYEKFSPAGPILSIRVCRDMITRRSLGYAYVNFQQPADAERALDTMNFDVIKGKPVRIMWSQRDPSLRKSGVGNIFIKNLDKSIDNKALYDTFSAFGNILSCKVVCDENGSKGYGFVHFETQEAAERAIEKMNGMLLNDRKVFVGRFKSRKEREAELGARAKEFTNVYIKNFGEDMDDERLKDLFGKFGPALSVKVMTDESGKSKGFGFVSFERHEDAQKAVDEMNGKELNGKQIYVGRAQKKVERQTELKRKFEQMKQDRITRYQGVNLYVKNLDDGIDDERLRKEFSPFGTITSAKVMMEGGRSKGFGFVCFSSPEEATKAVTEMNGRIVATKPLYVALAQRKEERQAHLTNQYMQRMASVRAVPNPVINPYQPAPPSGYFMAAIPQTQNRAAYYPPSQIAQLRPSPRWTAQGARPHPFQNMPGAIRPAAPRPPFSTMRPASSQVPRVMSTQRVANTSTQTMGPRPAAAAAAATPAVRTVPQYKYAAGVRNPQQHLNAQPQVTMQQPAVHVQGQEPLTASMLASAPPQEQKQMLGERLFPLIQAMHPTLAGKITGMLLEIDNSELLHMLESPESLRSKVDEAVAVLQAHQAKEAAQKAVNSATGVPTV
In test [11] the target is T3, Polyadenylate-binding protein 1. As to the kind of experiment: MLLE binding blockers, Cy5 peptide tracer – biochemical, fluorescence polarization, Cy5-PAM2 peptide, secondary, miRNA deadenylation inhibitor project, dose response (AID 602260). Type of test: functional. The conditions noted are these: read-out: IC50_Mean.

On to `CCN(CC)CCN(Cc1cc2ccc(C)c(C)c2nc1O)C(S)=NCc1ccco1`, for which the EC50 in test [1] and in test [2] was > 300 µM (not active) throughout. For the same compound, the CC50 in [3] was > 50 µM (active).
For the compound `O=C(O)CCc1ccc(-c2ccccc2)n1-c1ccc(C(=O)O)cc1`, the EC50 in [1] and in test [2] was > 300 µM (not active) throughout.
On to `CC(C)c1nnc(NC(=O)c2cc3cc(Br)ccc3oc2=O)s1`, for which the IC50 in the test “cells” was 0.66 µM (active).
Turning to `COc1ccc(CCSc2nnc(C3CCCCC3)n2N)cc1`, the AC50 in test [4] was 2.81 µM (active).
Same read-out and setting: under `O=C(Nc1cccc(-c2cn3ccccc3n2)c1)c1ccccc1` stands 2.89 µM (active); under `Nc1cc(C(=O)O)ccc1Nc1ccc(F)c(F)c1`, 0.345 µM (active).
Same read-out and setting: the same measure for `CCc1cc(-c2nnc(S)n2-c2cccc(C)c2)cs1`: 3.65 µM (active).
For the compound `O=C(c1cnn2c(C(F)F)cc(-c3ccccc3)nc12)N1CCc2ccccc2C1`, in test [5], the CC50 was > 40 µM (active).
On to `CN1C(=O)C(=Cc2cn(CC(=O)N3CCCC3)c3ccccc23)C(=O)N(C)C1=O`, for which the EC50 in [1] and in test [2] was > 300 µM (not active) in each case.
Take `CCN(CC)C(=O)Cn1cc(C(=O)C(=O)N2CCc3ccccc32)c2ccccc21`: the EC50 in [1] and in test [2] was > 300 µM (not active) in each case.
`CN1CCN(Cn2cc(/C=C/C(=O)c3ccccc3)c3ccccc32)CC1`: the figures for the EC50 (in the test on H4; in test [6]; in test [7]) were 18.9 µM (active), 0.148 µM (active) and 0.233 µM (active), respectively. Besides, in [5], the CC50 was > 40 µM (active).
`O=C(Nc1cc(Oc2ccccc2)cc([N+](=O)[O-])c1)C12CC3CC(C1)CC(n1cnc(Cl)n1)(C3)C2`: the EC50 is > 60 µM (not active) in test [8] and 1.51 µM (active) in test [9]. The CC50 in [5] was > 40 µM (active).
As to `Sc1nnc(-c2ccc(Cl)cc2)n1-c1ccc(Cl)cc1`, the AC50 in test [4] is 4.74 µM (active).
On to `COc1c(/C=C2/C(=O)NC(=O)N(C)C2=O)c(CCN(C)C(=O)c2ccccc2)cc2c1OCO2`, for which the EC50 in test [1] and in test [2] was > 300 µM (not active) in each case.
As to `Cc1cc(C)n(C(=O)c2ccc([N+](=O)[O-])cc2[N+](=O)[O-])n1`, the IC50 in the test “cells” is 43.6 µM (active).
Turning to `COc1cccc(NC(=O)c2ccc(Cn3cc([N+](=O)[O-])cn3)o2)c1`, the IC50 in the test “cells” was 18.5 µM (active).
Still for that read-out and setting: under `O=C(Oc1ccccc1)c1cccc(COC(=O)c2cnccn2)c1` stands 6.99 µM (active).
For `COc1ccc(CNC(=O)c2cc3cccc(O)c3oc2=N)cc1`, the IC50 in the test “cells” was 47.8 µM (active).
With `COC(=O)C1CSc2[nH]c(=O)sc2C1c1ccc(OC)c(OC)c1` (stereo not given), the EC50 in test [1] and in test [2] was > 300 µM (not active) throughout.
In the case of `CCCCCc1ccc(S(=O)(=O)NCCc2ccncc2)cc1`, the CC50 in [5] was 12.1 µM (active).
`CC1(C)Nc2ccccc2N(Cc2ccc([N+](=O)[O-])cc2)C1=O`: the AC50 in test [4] was 3.92 µM (active).
For `Oc1ccccc1CN1CCCC(N2CCN(c3cccc(C(F)(F)F)c3)CC2)C1` (stereo not given), in the test “cells”, the IC50 is 22.9 µM (active).
For the compound `COc1cc(/C=N/Nc2nc(O)nnc2C)cc([N+](=O)[O-])c1O`, the EC50 is 7.98 µM (active) in test [1] and 10.8 µM (inconclusive) in [2].
`COc1c(O)cccc1[C@H](O)C1CCN(CCc2ccc(F)cc2)CC1`: the concentration giving a half-maximal response (EC50) in test [1] is 14.4 µM (active); in [2] it was 13.7 µM (active). The IC50 in [10] was 36.9 µM (inactive); in [11], > 66 µM (inactive).

One may read the EC50 as the concentration that produces a half-maximal response. As a reminder, the AC50 is the midpoint of the concentration-response curve, whichever way the signal moves.
